Laboratory results published in US20260191192A1, “ANTIMICROBIAL COMPOSITIONS COMPRISING PELARGONIC ACID” (LANXESS Corporation, priority 2023, published 2026).

Experiments:
[1] = ZenBio Cupric Ion Chelating (CIC) Assay; assay type: physicochemical; details: calculated from a EDTA calibration curve, Pelargonic Acid at 775 μM
Experimental: The chelation property of the pelargonic acid was measured by using the ZenBio Cupric Ion Chelating (CIC) Assay (Cat #AOX-16). The assay measured the capacity of the pelargonic acid to chelate free cupric ions in solution, thereby inhibiting Cu(II) binding to pyrocatechol violet (PV) for generating a highly colored complex. The absorbance of the Cupric-PV complex was measured at a wavelength of 632 nm. The cupric ion chelating activity was determined as the percent of total PV over the Cu(II) binding. Ethylenediaminetetraacetic acid (EDTA), a well-known chelating agent, was used as a positive control. A series of EDTA with 7 different concentrations from 0 to 1000 μM were prepared and their corresponding absorbance measured and used as the calibration curve (Cupric ion chelating (%) vs. EDTA concentration). Percent cupric ion chelating was determined following the following calculations and Equation 1. The background absorbance value by averaging the absorbance values of the three background wells (no CuSO4 or sample). The average background absorbance was then subtracted from all the sample absorbance values. The maximal absorbance value (Absmax) was determined by averaging the absorbance values of the three wells containing CuSO4, PV and assay buffer. Abstest in Equation 1 is the absorbance of the test sample.
The calibration curve (Cupric ion chelating (%) vs. EDTA concentration) was fit by using a polynomial curve after log 10 transforming the concentrations (R2>0.98).

[2] = system: mixed fungal inoculum: Candida albicans ATCC #10231 and Aspergillus brasiliensis ATCC #16404; assay: Challenge test (preservative efficacy), mixed fungal inoculum; assay type: cell-based
Experimental: (§1) The preservative activity in representative rinse-off and leave-on formulations was evaluated using a modification of the Personal Care Products Council (PCPC—formerly the Cosmetic, Toiletry and Fragrance Association) protocol (Machtiger, et al. 2001. Determination of the Efficacy of Preservation of Non-Eye Area Water Miscible Cosmetic and Toiletry Formulations: Collaborative Study. J of AOAC International. 84:1, 101-109).
(§2) This evaluation was conducted using a four week, two or three-cycle (i.e., two-cycle for personal care and three-cycle for home care applications) microbial preservative efficacy test (i.e., challenge test) at 25° C. to determine the preservative efficacy of each treatment. Phenoxyethanol, benzyl alcohol and pelargonic acid were tested alone and in various combinations. The pelargonic acid used in the testing was purchased from Sigma-Aldrich. Combinations of phenoxyethanol or benzyl alcohol with benchmark multifunctional booster compounds were also tested for comparison. The preservative and booster ingredients were dosed and mixed thoroughly at room temperature into various formulations, specifically different personal care formulations including a lotion (leave-on, Table 1), a micellar water (rinse-off, Table 2), and a body wash formulation (rinse-off, Table 3) and different home care formulations including a manual dishwashing formulation (Table 4) and a liquid laundry detergent formulation (Table 5). […] Carbomers are a commonly used synthetic rheological modifier in personal care products. The formulation below was made by heating the aqueous (A) and oil (B) phases separately to 75-80° C. The oil phase was then poured into the aqueous phase and mixed by a homogenizer at approximately 45° C. The formed oil-in-water emulsion was cooled to room temperature. Triethanolamine and/or diluted sodium hydroxide was used to adjust the final pH to 6.3 or 6.5 (as indicated in the examples below).
(§3) After dosing, the samples were divided into two separate five gram aliquots. One aliquot was inoculated with 50 μl of a diluted bacterial pool, and the second aliquot was inoculated with 50 μl of a diluted fungal pool as described below. Unpreserved product samples were included as a growth control.
(§4) For personal care products, a mixed bacterial inoculum was prepared using 24-hour cultures of the test bacteria (Table 6) grown in trypticase soy broth (TSB). For home care products, a mixed bacterial inoculum was prepared using 24-hour cultures of the test bacteria either from Table 6 (full pool) or Table 7 (simplified pool) grown in trypticase soy broth (TSB). Details are disclosed in the home care examples below. Equal volumes of the bacterial test strains were combined and diluted one to ten in phosphate buffer to obtain an inoculum of approximately 5×10^7 to 5×10^8 colony forming units per ml (cfu/ml). The test samples were inoculated with 1% of the mixed bacterial inoculum. For both personal care and home care products, a mixed fungal inoculum was prepared using cell suspensions of the yeast Candida albicans ATCC #10231 and the mold Aspergillus brasiliensis ATCC #16404 in phosphate buffer. Equal volumes of the fungal test strains were combined and diluted one to ten with phosphate buffer to obtain an inoculum of approximately 5×10^6 to 5×10^7 cfu/ml. The test samples were inoculated with 1% of the mixed fungal inoculum.
(§5) For personal care products, the samples were subjected to two microbial challenges at time zero and inoculated a second time after seven days. For home care products, the samples were subjected to three microbial challenges at time zero and inoculated a second and third time after seven and fourteen days, respectively. The number of microorganisms added to each sample was determined by a standard Most Probable Number (MPN) determination in Trypticase Soy Broth (TSB) for bacteria and Potato Dextrose Broth (PDB) for fungi. Samples were incubated at 25° C. for the test duration of four weeks.

[3] = system: mixed bacterial inoculum (Table 6); assay: Challenge test (preservative efficacy), mixed bacterial inoculum, full pool (Table 6); assay type: cell-based
Experimental: as §1, §2, §3, §4, §5

[4] = system: bacteria (Table 6 pool) and fungi; assay: Challenge test, overall result (full bacteria pool and fungi); assay type: cell-based
Experimental: as §1, §2, §3, §4, §5

[5] = system: bacteria (Table 7 pool) and fungi; assay: Challenge test, overall result (simplified bacteria pool and fungi); assay type: cell-based; details: dosed 0.02 wt %
Experimental: as §1, §2, §3, §4, §5

[6] = system: mixed bacterial inoculum for home care (Table 7); assay: Challenge test (preservative efficacy), mixed bacterial inoculum, simplified pool (Table 7); assay type: cell-based, Pseudomonas aeruginosa, Staphylococcus aureus; details: dosed 0.02 wt %
Experimental: as §1, §2, §3, §4, §5

[7] = body wash, pH 6.5, Example 1E, dosed 0.5 wt %
[8] = micellar water, pH 6.0, Example 1B, dosed 0.5 wt %
[9] = micellar water, pH 6.0, bacteria inoculation ~10^7 cfu/ml, Example 1B, dosed 0.5 wt %
[10] = lotion with carbomer, pH 6.3, Example 1A, dosed 0.4 wt %
[11] = micellar water, pH 6.0, Example 1B, dosed 0.3 wt %
[12] = micellar water, pH 6.0, Example 1C, dosed 0.3 wt %
[13] = liquid laundry detergent, pH 7.5, Example 1H, dosed 0.02 wt %
[14] = lotion with carbomer, pH 6.5, Example 1I, dosed 0.016 wt %

## CCCCC(CC)COCC(O)CO (stereo not shown) [2-ethyl-hexyl glycerin (EHG), 2-ethyl-hexyl glycerin]
[1]; listed as Ethylhexylglycerin
  Calculated EDTA equivalent: ~0 µM
[1]; listed as ethylhexylglycerin
  Calculated EDTA equivalent: ~ 0 μM
[2]; [7]
  Fungi growth rating Result: Fail (growth rating score caused by fungi of more than 2 at days 21-28 of the testing period)
[2]; [8]
  Fungi growth rating Result: Fail (growth rating score caused by fungi of more than 2 at days 21-28 of the testing period)
[3]; [7]
  Bacteria growth rating Result: Fail (growth rating score caused by bacteria of 2 or more at days 21-28 of the testing period)
[3]; [9]
  Bacteria growth rating Result: Fail (growth rating score caused by bacteria of 2 or more at days 21-28 of the testing period)
[4]; [7]
  Overall Result: Fail
[4]; [8]
  Overall Result: Fail

## OCc1ccccc1 [Benzyl Alcohol (BA), benzyl alcohol]
[2]; [7]
  Fungi growth rating Result: Pass (growth rating score caused by fungi of 2 or less at days 21-28 of the testing period)
[2]; [10]
  Fungi growth rating Result: Fail (growth rating score caused by fungi of more than 2 at days 21-28 of the testing period)
[2]; [11]
  Fungi growth rating Result: Fail (growth rating score caused by fungi of more than 2 at days 21-28 of the testing period)
[2]; [12]
  Fungi growth rating Result: Fail (growth rating score caused by fungi of more than 2 at days 21-28 of the testing period)
[3]; [7]
  Bacteria growth rating Result: Fail (growth rating score caused by bacteria of 2 or more at days 21-28 of the testing period)
[3]; [10]
  Bacteria growth rating Result: Fail (growth rating score caused by bacteria of 2 or more at days 21-28 of the testing period)
[3]; lotion with carbomer, pH 6.3, Example 1D, dosed 0.4 wt %
  Bacteria growth rating Result: Fail (growth rating score caused by bacteria of 2 or more at days 21-28 of the testing period)
[3]; lotion with carbomer, pH 6.3, Example 1D, dosed 0.8 wt %
  Bacteria growth rating Result: Fail (growth rating score caused by bacteria of 2 or more at days 21-28 of the testing period)
[3]; micellar water, pH 6.0, bacteria inoculation ~10^7 cfu/ml, Example 1B, dosed 0.3 wt %
  Bacteria growth rating Result: Pass (growth rating score caused by bacteria of 1 or less at days 21-28 of the testing period)
[3]; micellar water, pH 6.0, bacteria inoculation ~10^8 cfu/ml, Example 1C, dosed 0.3 wt %
  Bacteria growth rating Result: Fail (growth rating score caused by bacteria of 2 or more at days 21-28 of the testing period)
[4]; [7]
  Overall Result: Fail
[4]; [10]
  Overall Result: Fail
[4]; [11]
  Overall Result: Fail
[4]; [12]
  Overall Result: Fail

## CCCCCCCC(=O)NO [Caprylhydroxamic acid (CHA), Caprylhydroxamic acid]
[5]; liquid laundry detergent, pH 7.5, Example 1G
  Overall Result: Fail
[5]; manual dishwashing formulation, pH 5.5, Example 1F
  Overall Result: Fail
[2]; liquid laundry detergent, pH 7.5, Example 1G, dosed 0.02 wt %
  Fungi growth rating Result: Fail (growth rating score caused by fungi of more than 2 at days 21-28 of the testing period)
[2]; [13]
  Fungi growth rating Result: Fail (growth rating score caused by fungi of more than 2 at days 21-28 of the testing period)
[2]; [14]
  Fungi growth rating Result: Fail (growth rating score caused by fungi of more than 2 at days 21-28 of the testing period)
[2]; manual dishwashing formulation, pH 5.5, Example 1F, dosed 0.02 wt %
  Fungi growth rating Result: Fail (growth rating score caused by fungi of more than 2 at days 21-28 of the testing period)
[3]; liquid laundry detergent, pH 7.5, full bacteria pool, Example 1H, dosed 0.02 wt %
  Bacteria growth rating Result: Fail (growth rating score caused by bacteria of 2 or more at days 21-28 of the testing period)
[3]; [14]
  Bacteria growth rating Result: Fail (growth rating score caused by bacteria of 2 or more at days 21-28 of the testing period)
[6]; liquid laundry detergent, pH 7.5, simplified bacteria pool, Example 1G
  Bacteria growth rating Result: Fail (growth rating score caused by bacteria of 2 or more at days 21-28 of the testing period)
[6]; manual dishwashing formulation, pH 5.5, simplified bacteria pool, Example 1F
  Bacteria growth rating Result: Fail (growth rating score caused by bacteria of 2 or more at days 21-28 of the testing period)
[4]; [13]
  Overall Result: Fail
[4]; [14]
  Overall Result: Fail

## CCCCC(O)CO (stereo not shown) [1,2 hexanediol]
[2]; [8]
  Fungi growth rating Result: Fail (growth rating score caused by fungi of more than 2 at days 21-28 of the testing period)
[3]; [9]
  Bacteria growth rating Result: Pass (growth rating score caused by bacteria of 1 or less at days 21-28 of the testing period)
[4]; [8]
  Overall Result: Fail
